# Source: ChEMBL document CHEMBL1909046, “DrugMatrix in vitro pharmacology data”
# What was measured:
# [1] = target: T1, Glucocorticoid receptor (Homo sapiens, UniProt P04150); assay: biochemical
# T1 sequence (P04150 whole entry): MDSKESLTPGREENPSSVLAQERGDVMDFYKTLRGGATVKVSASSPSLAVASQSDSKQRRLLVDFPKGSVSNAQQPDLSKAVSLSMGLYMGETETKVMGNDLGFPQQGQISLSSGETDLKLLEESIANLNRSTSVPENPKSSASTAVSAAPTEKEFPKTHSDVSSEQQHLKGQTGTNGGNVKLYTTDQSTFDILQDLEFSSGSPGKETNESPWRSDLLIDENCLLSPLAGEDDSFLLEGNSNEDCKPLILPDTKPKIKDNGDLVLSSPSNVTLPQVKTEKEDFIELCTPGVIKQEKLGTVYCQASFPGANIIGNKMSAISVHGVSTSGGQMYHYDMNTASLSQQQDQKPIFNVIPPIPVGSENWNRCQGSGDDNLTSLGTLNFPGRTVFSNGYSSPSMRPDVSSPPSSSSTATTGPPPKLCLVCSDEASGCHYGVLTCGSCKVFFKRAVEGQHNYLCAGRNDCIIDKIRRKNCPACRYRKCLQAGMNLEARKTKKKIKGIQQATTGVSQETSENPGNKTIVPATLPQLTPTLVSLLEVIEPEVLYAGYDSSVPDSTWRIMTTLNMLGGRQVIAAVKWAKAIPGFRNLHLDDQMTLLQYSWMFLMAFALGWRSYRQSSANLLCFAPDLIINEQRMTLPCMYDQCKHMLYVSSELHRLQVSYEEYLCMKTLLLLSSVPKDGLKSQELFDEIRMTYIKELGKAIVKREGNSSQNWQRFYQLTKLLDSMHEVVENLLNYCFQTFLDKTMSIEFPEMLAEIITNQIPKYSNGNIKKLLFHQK
# [2] = target: Cytochrome P450 2C19 (Homo sapiens, UniProt P33261)
# Chain of Cytochrome P450 2C19 (P33261 whole entry): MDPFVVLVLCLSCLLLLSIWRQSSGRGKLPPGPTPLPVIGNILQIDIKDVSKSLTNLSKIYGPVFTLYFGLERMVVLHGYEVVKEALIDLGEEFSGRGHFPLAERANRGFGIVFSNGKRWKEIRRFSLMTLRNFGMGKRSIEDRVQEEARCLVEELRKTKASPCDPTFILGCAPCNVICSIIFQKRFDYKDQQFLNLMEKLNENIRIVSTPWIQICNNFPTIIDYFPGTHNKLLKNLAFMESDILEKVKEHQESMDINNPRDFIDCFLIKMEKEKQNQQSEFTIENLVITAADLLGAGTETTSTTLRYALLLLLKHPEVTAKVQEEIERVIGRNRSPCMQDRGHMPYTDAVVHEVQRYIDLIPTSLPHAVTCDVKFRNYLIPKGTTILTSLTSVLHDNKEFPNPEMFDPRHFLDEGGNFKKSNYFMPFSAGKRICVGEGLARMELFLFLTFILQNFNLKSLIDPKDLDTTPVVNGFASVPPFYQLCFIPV
# [3] = target: T2, Androgen receptor (Rattus norvegicus, UniProt P15207)
# T2 sequence (P15207 whole entry): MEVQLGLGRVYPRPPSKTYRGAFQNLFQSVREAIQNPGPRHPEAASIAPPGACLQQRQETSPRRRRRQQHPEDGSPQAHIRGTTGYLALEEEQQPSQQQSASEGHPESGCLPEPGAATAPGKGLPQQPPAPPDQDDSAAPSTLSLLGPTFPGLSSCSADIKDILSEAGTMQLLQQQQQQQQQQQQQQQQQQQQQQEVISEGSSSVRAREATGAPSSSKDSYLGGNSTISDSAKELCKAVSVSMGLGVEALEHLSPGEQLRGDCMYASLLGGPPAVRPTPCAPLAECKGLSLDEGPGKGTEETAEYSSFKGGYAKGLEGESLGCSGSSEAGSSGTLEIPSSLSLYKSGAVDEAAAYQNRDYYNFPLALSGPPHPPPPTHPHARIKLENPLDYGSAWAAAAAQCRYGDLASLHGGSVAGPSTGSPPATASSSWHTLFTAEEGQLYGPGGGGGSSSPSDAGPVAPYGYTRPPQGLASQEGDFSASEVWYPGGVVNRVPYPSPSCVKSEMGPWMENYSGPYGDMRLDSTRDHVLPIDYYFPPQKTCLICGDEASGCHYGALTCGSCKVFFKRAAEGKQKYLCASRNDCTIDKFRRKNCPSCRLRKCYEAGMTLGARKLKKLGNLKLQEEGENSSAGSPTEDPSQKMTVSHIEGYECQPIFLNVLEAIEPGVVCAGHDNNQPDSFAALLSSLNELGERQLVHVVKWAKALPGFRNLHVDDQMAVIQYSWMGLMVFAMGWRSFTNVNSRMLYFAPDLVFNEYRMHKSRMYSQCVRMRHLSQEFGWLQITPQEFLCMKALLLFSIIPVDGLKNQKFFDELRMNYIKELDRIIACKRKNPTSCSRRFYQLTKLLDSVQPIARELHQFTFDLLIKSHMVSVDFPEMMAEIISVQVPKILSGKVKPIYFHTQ
# [4] = target: T3, Cytochrome P450 1A2 (Homo sapiens, UniProt P05177)
# T3 sequence (P05177 whole entry): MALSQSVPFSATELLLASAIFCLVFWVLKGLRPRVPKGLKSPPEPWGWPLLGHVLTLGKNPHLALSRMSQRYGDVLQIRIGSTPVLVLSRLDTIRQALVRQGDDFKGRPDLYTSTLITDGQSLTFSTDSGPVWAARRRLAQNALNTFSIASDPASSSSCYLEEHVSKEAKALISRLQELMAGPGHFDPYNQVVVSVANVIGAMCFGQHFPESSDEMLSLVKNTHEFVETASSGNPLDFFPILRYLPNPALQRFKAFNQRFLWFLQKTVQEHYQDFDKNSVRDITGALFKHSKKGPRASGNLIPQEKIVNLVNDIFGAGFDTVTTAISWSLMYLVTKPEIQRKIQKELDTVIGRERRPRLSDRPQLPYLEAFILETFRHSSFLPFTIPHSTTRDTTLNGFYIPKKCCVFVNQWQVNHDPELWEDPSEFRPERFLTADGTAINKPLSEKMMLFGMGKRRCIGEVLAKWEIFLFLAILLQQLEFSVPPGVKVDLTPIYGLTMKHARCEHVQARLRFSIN
# [5] = target: Cytochrome P450 2D6 (Homo sapiens, UniProt P10635)
# Chain of Cytochrome P450 2D6 (P10635 whole entry): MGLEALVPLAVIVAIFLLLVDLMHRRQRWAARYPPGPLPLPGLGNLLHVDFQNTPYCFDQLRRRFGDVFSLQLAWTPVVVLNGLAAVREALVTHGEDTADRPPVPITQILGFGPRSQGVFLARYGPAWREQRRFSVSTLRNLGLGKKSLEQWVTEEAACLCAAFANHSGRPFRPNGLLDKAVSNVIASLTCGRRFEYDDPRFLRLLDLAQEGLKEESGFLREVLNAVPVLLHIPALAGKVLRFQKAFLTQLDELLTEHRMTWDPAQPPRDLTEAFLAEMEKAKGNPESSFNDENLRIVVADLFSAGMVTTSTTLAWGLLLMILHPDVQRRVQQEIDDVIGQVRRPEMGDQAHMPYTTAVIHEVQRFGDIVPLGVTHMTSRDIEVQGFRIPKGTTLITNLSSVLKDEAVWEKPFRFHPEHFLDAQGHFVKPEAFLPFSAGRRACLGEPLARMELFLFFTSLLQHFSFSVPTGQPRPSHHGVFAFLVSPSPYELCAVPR
# [6] = target: Voltage-gated inwardly rectifying potassium channel KCNH2 (Homo sapiens, UniProt Q12809)
# Chain of Voltage-gated inwardly rectifying potassium channel KCNH2 (Q12809 whole entry): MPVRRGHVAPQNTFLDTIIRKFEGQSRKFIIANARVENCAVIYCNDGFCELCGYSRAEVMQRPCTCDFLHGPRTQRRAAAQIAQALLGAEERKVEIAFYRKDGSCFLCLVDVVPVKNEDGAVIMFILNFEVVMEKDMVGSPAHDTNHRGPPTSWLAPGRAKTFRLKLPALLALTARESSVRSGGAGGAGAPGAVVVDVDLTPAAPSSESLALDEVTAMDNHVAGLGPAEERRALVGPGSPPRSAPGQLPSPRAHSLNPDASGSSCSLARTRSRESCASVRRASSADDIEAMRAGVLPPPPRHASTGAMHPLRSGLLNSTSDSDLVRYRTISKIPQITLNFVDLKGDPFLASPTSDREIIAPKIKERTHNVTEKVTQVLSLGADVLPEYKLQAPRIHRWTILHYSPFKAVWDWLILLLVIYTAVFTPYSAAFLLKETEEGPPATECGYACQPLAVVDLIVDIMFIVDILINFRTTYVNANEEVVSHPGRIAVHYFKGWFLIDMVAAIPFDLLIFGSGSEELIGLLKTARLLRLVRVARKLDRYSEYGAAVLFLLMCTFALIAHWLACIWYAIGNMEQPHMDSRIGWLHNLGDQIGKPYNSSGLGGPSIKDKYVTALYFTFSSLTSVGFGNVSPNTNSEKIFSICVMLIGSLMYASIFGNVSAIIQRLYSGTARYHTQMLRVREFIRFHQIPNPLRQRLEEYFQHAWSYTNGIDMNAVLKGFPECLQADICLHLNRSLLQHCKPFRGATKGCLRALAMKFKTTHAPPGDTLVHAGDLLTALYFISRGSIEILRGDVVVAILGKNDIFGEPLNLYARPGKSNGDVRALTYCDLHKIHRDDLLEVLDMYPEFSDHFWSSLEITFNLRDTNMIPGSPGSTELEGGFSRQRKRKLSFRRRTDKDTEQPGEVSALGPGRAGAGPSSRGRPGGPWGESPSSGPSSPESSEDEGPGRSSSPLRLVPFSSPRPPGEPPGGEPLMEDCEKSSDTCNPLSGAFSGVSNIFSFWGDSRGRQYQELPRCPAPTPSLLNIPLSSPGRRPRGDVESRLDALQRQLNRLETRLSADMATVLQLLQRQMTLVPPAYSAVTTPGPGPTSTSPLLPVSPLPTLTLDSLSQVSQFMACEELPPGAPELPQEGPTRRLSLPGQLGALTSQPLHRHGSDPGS
# [7] = target: Cytochrome P450 2C9 (Homo sapiens, UniProt P11712)
# Chain of Cytochrome P450 2C9 (P11712 whole entry): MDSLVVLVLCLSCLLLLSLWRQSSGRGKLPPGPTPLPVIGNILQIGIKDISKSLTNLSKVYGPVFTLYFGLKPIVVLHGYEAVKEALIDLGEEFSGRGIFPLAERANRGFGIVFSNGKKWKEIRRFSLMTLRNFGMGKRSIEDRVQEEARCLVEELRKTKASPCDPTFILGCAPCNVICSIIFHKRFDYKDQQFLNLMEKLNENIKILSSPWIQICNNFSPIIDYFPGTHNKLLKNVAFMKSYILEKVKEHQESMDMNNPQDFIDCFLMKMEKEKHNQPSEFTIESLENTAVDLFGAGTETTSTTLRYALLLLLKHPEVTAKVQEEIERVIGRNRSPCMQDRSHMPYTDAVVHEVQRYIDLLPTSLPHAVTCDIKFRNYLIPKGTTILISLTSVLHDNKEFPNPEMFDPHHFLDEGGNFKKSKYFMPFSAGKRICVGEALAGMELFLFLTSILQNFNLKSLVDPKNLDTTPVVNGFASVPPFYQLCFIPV
# Note: in other assays of this panel Not Active means under 50% inhibition at 10 µM.
compound,measurement,setting,value
CC(=O)[C@@]1(O)CC[C@H]2[C@@H]3C[C@H](C)C4=CC(=O)CC[C@]4(C)[C@H]3CC[C@@]21C,IC50,[1],0.019 µM
same,Ki,[1],0.0086 µM
same,IC50,[2],2 µM
OCCN(CCO)c1nc(N2CCCCC2)c2nc(N(CCO)CCO)nc(N3CCCCC3)c2n1 [DIPYRIDAMOLE],IC50,[3],Not Active
Cc1oncc1C(=O)Nc1ccc(C(F)(F)F)cc1 [LEFLUNOMIDE],IC50,[4],0.5 µM
CC[C@@H](CO)NC(=O)[C@@H]1C=C2c3cccc4[nH]cc(c34)C[C@H]2N(C)C1 [METHYLERGONOVINE],IC50,[3],Not Active
O=c1ncn2nc(Sc3ccc(F)cc3F)ccc2c1-c1c(Cl)cccc1Cl [NEFLAMAPIMOD],IC50,[3],Not Active
CN1CCN(CCCN2c3ccccc3Sc3ccc(Cl)cc32)CC1 [PROCHLORPERAZINE],IC50,[4],2 µM
Cc1nc2n(c(=O)c1CCN1CCC(c3noc4cc(F)ccc34)CC1)CCCC2 [RISPERIDONE],IC50,[5],5.27 µM
C[C@@H]1CN(c2c(F)c(N)c3c(=O)c(C(=O)O)cn(C4CC4)c3c2F)C[C@H](C)N1 [SPARFLOXACIN],IC50,[6],47.1 µM
same,Ki,[6],38.6 µM
CSc1ccc(/C=C2/C(C)=C(CC(=O)O)c3cc(F)ccc32)cc1 [SULINDAC SULFIDE],IC50,[4],2 µM
same,IC50,[3],Not Active
Nc1c2c(nc3ccccc13)CCCC2 [TACRINE],IC50,[5],0.3 µM
Nc1nc2nc[nH]c2c(=S)[nH]1 [THIOGUANINE],IC50,[3],Not Active
Cc1cccc(N(C)C(=S)Oc2ccc3ccccc3c2)c1 [TOLNAFTATE],IC50,[2],3 µM
CC1(C)O[C@@H]2C[C@H]3[C@@H]4CCC5=CC(=O)C=C[C@]5(C)[C@@]4(F)[C@@H](O)C[C@]3(C)[C@]2(C(=O)CO)O1 [TRIAMCINOLONE ACETONIDE],IC50,[1],0.00441 µM
same,Ki,[1],0.00201 µM
Cc1c(C)c2c(c(C)c1O)CCC(C)(COc1ccc(CC3SC(=O)NC3=O)cc1)O2 (stereo not given) [TROGLITAZONE],IC50,[3],Not Active
same,IC50,[7],4 µM
N[C@@H]1[C@H]2CN(c3nc4c(cc3F)c(=O)c(C(=O)O)cn4-c3ccc(F)cc3F)C[C@@H]12 [TROVAFLOXACIN],IC50,[3],Not Active
N#CC(C#N)=Cc1ccc(O)c(O)c1 [TYRPHOSTIN 23],IC50,[3],Not Active
CC[C@]1(O)C[C@H]2CN(CCc3c([nH]c4ccccc34)[C@@](C(=O)OC)(c3cc4c(cc3OC)N(C=O)[C@H]3[C@@](O)(C(=O)OC)[C@H](OC(C)=O)[C@]5(CC)C=CCN6CC[C@]43[C@@H]65)C2)C1 [VINCRISTINE],IC50,[3],Not Active
SODIUM NITROPRUSSIDE,IC50,[3],Not Active
same,Ki,[3],Not Active
